One assay addresses DNMT3A/3L (Homo sapiens, UniProt Q9Y6K1). In words: In vitro DNMT inhibition, radiometric filter-paper assay, DNMT3A/3L. The class given is biochemical.
In another assay the test system is HepG2 cells. In words: MTT cell proliferation assay, HepG2. The class given is cell-based. The settings on record: Homo sapiens, HepG2, 24 h, read-out: IC50 (μM) HepG2. (Tetrazolium assays rely on reduction of a dye to a coloured formazan, in cell work by metabolically active cells.)
The target in assay [1] is DNMT1 (Homo sapiens, UniProt P26358). In words: In vitro DNMT inhibition, radiometric filter-paper assay, DNMT1. The format is biochemical.
DNMT1 (Homo sapiens, UniProt P26358), sequence (P26358 whole entry): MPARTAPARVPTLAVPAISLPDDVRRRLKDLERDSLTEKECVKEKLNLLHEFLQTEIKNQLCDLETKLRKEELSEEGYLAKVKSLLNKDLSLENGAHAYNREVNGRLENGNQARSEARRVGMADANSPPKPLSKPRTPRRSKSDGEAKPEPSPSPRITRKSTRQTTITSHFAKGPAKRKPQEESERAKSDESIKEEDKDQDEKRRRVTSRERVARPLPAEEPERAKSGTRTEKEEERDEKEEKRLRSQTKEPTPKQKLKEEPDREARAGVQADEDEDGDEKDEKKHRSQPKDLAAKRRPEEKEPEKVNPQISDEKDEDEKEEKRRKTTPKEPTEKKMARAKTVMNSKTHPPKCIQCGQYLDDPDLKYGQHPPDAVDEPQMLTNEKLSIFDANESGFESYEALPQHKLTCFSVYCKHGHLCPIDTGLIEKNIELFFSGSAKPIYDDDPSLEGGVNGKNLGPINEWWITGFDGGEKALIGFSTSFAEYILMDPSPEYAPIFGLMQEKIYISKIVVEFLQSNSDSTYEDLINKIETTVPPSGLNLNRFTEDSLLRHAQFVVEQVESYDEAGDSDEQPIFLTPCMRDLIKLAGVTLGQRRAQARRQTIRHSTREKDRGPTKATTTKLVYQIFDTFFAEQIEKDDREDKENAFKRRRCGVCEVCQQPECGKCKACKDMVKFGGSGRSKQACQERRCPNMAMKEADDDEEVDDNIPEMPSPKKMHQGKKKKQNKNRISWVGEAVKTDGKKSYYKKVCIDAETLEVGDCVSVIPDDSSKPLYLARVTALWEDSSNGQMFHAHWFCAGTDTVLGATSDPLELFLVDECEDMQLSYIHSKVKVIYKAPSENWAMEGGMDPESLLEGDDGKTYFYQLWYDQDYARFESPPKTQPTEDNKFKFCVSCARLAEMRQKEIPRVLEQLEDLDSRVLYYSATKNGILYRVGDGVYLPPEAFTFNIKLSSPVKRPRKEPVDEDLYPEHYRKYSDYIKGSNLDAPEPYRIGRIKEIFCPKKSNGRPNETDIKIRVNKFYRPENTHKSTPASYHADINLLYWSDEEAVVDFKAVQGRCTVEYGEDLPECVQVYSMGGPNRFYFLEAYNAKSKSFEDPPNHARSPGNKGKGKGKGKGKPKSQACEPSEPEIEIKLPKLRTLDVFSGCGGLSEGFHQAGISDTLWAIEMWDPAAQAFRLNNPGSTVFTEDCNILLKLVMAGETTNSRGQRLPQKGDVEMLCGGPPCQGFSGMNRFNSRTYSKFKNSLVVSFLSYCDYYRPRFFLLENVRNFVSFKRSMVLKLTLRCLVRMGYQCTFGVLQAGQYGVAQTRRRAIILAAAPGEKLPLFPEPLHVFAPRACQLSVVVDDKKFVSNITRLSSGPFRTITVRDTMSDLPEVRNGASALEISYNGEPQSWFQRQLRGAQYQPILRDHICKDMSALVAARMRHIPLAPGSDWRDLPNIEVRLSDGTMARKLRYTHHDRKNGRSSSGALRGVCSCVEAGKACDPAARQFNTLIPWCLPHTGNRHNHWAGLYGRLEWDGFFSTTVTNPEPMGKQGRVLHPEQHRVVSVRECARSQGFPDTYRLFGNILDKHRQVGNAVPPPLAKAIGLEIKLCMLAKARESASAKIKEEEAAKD
In another assay the test system is HT-29 cells. In words: MTT cell proliferation assay, HT-29. Particulars: Homo sapiens, HT-29, 24 h, read-out: IC50 (μM) HT-29. The class given is cell-based.
Another assay concerns the target DNMT3B/3L (Homo sapiens, UniProt Q9UBC3). In words: In vitro DNMT inhibition, radiometric filter-paper assay, DNMT3B/3L. The format is biochemical.
In assay [2] the test system is DNMT1. Particulars: rats, 21-week treatment period; protein expression ref 39; cited from earlier work.
A further assay relates to DNMT3B. The settings on record: rats, 21-week treatment period; protein expression ref 39; cited from earlier work.

The structures appear in SMILES notation. pIC50: −log10 of the molar value. Read-outs that look alike come from different tables or passages of the source.

By pIC50 is commonly meant the negative decadic logarithm of the IC50, by convention in mol/L. What is called IC50 is the point on the concentration scale where inhibition reaches its midpoint. Turning to `COc1ccc(/C=C/c2cc(OC)cc(OC)c2)cc1` [TMS, 3,4′,5-trans-trimethoxystilbene], the pIC50 at DNMT3A/3L and at DNMT3B/3L was < 3.52 throughout. Besides, the “inhibition of DNMT3A at the highest test compound concentration” value at DNMT3A/3L (300 μM) is listed as “no significant inhibition”. In addition, the IC50 in the assay with HepG2 cells is > 100 µM; at DNMT1 [1] (read-out: IC50 (μM) DNMT1, cell-free biochemical assay, NI = no inhibition at the maximum test compound concentration (300 μM)), > 300 µM; in the assay with HT-29 cells it was 14 µM. At DNMT1 [1] (300 μM), the “inhibition of DNMT1 at the highest test compound concentration” value is “no significant inhibition”. The “inhibition of DNMT3B at the highest test compound concentration” value against DNMT3B/3L (300 μM) was “no significant inhibition”.

As to `Oc1ccc(/C=C/c2cc(O)cc(O)c2)cc1` [Resveratrol, 3,4′,5-trans-trihydroxystilbene], the “expression of the DNMT1 enzyme” value in the assay with DNMT1 [2] was “did not significantly reduce”. In addition, the results for the pIC50 against DNMT3A/3L, against DNMT1 [1] and against DNMT3B/3L were 3.98, < 3.52 and 4.19, respectively. Besides, in the assay with DNMT3B, the “expression of DNMT3B” value was “significant reduction”. Besides, the IC50 in the assay on HepG2 cells worked out at 54.9 µM; in the assay on HT-29 cells it was 130 µM.

The record behind these values is paper PMC4828318 (Journal of enzyme inhibition and medicinal chemistry, 2015).
